Legend:
Experiment in all cases: Mass spectroscopy proteomics, semi-quantitative binding affinity of serum proteins (plaqueproteome, Table 2)
Conditions in all cases: higher number = stronger affinity
[1] = molecular target: T1, Abeta-42 plaque particles (Homo sapiens, UniProt P05067)
T1 construct: Abeta 1-42
Procedure, shortened: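 AD patient serum or plasma (50% in PBS) was incubated with Abeta-42 aggregates (30 μg) for 1 h at 37 °C, then stained with Thioflavin S for 30 min. Labeled particles were FACS-sorted, trypsin/Lys-C digested overnight and analyzed by MS/MS. Sequest searched human UniProt; Scaffold/Protein Prophet validated the identifications.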

[2] = tested on: High Density cholesterol (Chl Large) plaque particles; parameters: species or system human
Procedure, shortened: (§1)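 Serum or plasma from atherosclerotic subjects, as 50% serum, was incubated with 30 μg cholesterol aggregates for 1 h at 37 °C. High- and low-density particles were then flow-sorted, trypsin-digested and analysed by MS/MS. Proteins were identified by Sequest search against human UniProt and validated with Protein Prophet.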

[3] = tested on: Low density cholesterol (Chl small) plaque particles; parameters: species or system human
Procedure, shortened: as §1

[4] = molecular target: T2, alpha-synuclein plaque particles (Homo sapiens, UniProt P37840)
T2 construct: 140 amino acids polypeptide
Procedure, shortened: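 AD-subject plasma or serum (800 μL of 50%) mixed with 30 μg preformed alpha-synuclein aggregates for 1 h at 37 °C; Thioflavin S-positive particles isolated by flow sorting. After reduction, acrylamide alkylation and overnight tryptic digestion, serum proteins identified by MS/MS with Sequest and Scaffold.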

Tau plaque particles = tested on: Tau plaque particles; parameters: species or system human
Procedure, shortened: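 Serum or plasma proteins captured on Thioflavin S-labelled Tau plaque particles (Tau-74, Tau-275 oligomers preformed in PBS at 37° C for 2 h; 1 h co-incubation at 37° C) were isolated by FACS sorting, then tryptically digested and identified by MS/MS (Sequest, human UniProt, strict trypsin).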

Substance	Semi-quantitative analysis of proteins binding to different plaque particles: Abeta-42 [1]	Semi-quantitative analysis of proteins binding to different plaque particles: Chl Large [2]	Semi-quantitative analysis of proteins binding to different plaque particles: Chl small [3]	Semi-quantitative analysis of proteins binding to different plaque particles: Synuclein [4]	Semi-quantitative analysis of proteins binding to different plaque particles: Tau (Tau plaque particles)
Myosin-13	17	0	0	0	0
Nucleoside diphosphate kinase A	5	0	0	4	0
POTE ankyrin domain family member E	18	0	0	18	0
Phosphatidylcholine-sterol acyltransferase	0	1	0	1	0
Plasma kallikrein	0	1	3	0	3
Plasma protease C1 inhibitor	4	7	7	9	3
Plasminogen	7	11	9	7	13
Platelet factor 4	2	1	0	1	1
Serotransferrin	46	66	73	78	48
Serum amyloid P-component	5	1	1	0	2
Transthyretin	14	25	21	23	13
Tropomyosin alpha-3 chain	5	0	0	0	0

From US9618524B2, “Method, composition, isolation and identification of a plaque particle and related biomarker” (Plaxgen Inc., priority 2012, dated 2017)
